Laboratory results: ChEMBL document CHEMBL5126575, “Synthesis of a new series of quinoline/pyridine indole-3-sulfonamide hybrids as selective carbonic anhydrase IX inhibitors” (Bioorg Med Chem Lett, 2022)

Legend:
[1] = biological target: Carbonic anhydrase 12 (Homo sapiens, UniProt O43570)
Description: Inhibition of human carbonic anhydrase 12 by stopped flow CO2 assay

[2] = biological target: Carbonic anhydrase 9 (Homo sapiens, UniProt Q16790); assay: Inhibition of human carbonic anhydrase 9 by stopped flow CO2 assay
[3] = biological target: Carbonic anhydrase 1 (Homo sapiens, UniProt P00915); assay: Inhibition of human carbonic anhydrase 1 by stopped flow CO2 assay
[4] = biological target: Carbonic anhydrase 2 (Homo sapiens, UniProt P00918); assay: Inhibition of human carbonic anhydrase 2 by stopped flow CO2 assay

Sequence of Carbonic anhydrase 12 (O43570 whole entry): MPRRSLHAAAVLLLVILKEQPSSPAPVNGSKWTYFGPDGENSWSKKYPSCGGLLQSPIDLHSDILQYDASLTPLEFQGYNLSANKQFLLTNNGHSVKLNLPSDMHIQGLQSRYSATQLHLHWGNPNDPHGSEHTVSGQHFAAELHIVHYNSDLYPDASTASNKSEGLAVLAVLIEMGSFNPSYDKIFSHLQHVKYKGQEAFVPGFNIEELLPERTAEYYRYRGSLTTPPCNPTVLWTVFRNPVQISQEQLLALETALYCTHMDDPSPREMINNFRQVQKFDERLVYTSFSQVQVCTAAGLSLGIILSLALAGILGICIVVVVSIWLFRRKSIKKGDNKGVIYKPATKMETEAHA
Sequence of Carbonic anhydrase 1 (P00915 whole entry): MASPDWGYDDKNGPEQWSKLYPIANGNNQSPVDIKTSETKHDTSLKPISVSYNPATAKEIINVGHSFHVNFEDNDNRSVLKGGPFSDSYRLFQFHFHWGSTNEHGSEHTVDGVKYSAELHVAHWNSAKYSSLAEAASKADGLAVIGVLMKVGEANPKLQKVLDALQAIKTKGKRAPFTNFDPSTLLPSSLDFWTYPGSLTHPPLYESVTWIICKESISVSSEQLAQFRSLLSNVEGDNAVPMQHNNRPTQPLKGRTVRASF

Ki [1] | Ki [2] | Ki [3] | Ki [4] | Compound
> 100 µM | 18.5 µM | > 100 µM | – | Cn1cc(S(N)(=O)=O)c2cc(NC(=O)c3cc(-c4ccc(Cl)cc4)nc4ccccc34)ccc21
– | 8.16 µM | > 100 µM | > 100 µM | Cn1cc(S(N)(=O)=O)c2cc(NC(=O)c3ccnc(Br)c3)ccc21
– | 5.56 µM | > 100 µM | – | CCn1cc(S(N)(=O)=O)c2cc(NC(=O)c3cc(-c4ccc(Cl)cc4)nc4ccccc34)ccc21
– | 5.33 µM | > 100 µM | > 100 µM | CCn1cc(S(N)(=O)=O)c2cc(NC(=O)c3ccnc(O)c3)ccc21
> 100 µM | 15.9 µM | > 100 µM | > 100 µM | Cn1cc(S(N)(=O)=O)c2cc(NC(=O)c3cc(Cl)nc(Br)c3)ccc21
– | 8.78 µM | > 100 µM | – | CCn1cc(S(N)(=O)=O)c2cc(NC(=O)c3cc(Cl)nc(Br)c3)ccc21
– | 8.65 µM | > 100 µM | – | CCn1cc(S(N)(=O)=O)c2cc(NC(=O)c3cc(-c4ccccc4C)nc4ccc(OC)cc34)ccc21
> 100 µM | 26.7 µM | > 100 µM | > 100 µM | CCn1cc(S(N)(=O)=O)c2cc(NC(=O)c3cc(-c4ccccc4OC)nc4ccc(OC)cc34)ccc21
– | 5.93 µM | > 100 µM | > 100 µM | Cn1cc(S(N)(=O)=O)c2cc(NC(=O)c3ccnc(Cl)c3)ccc21
– | 1.47 µM | > 100 µM | – | CCn1cc(S(N)(=O)=O)c2cc(NC(=O)c3cc(-c4ccc(Cl)cc4Cl)nc4ccccc34)ccc21
– | 9.05 µM | > 100 µM | > 100 µM | Cn1cc(S(N)(=O)=O)c2cc(NC(=O)c3ccnc(O)c3)ccc21

Further lines, the compound ahead of its results:

Compound | Ki [1] | Ki [2] | Ki [3] | Ki [4]
Cn1cc(S(N)(=O)=O)c2cc(NC(=O)c3cc(-c4ccccc4)nc4ccccc34)ccc21 | > 100 µM | 82.4 µM | > 100 µM | > 100 µM
CCn1cc(S(N)(=O)=O)c2cc(NC(=O)c3ccnc(N)c3)ccc21 | > 100 µM | 19.8 µM | > 100 µM | > 100 µM
COc1ccc2nc(-c3ccccc3OC)cc(C(=O)Nc3ccc4c(c3)c(S(N)(=O)=O)cn4C)c2c1 | > 100 µM | 38.9 µM | > 100 µM | > 100 µM
CCn1cc(S(N)(=O)=O)c2cc(NC(=O)c3cc(-c4ccccc4)nc4ccccc34)ccc21 | > 100 µM | > 100 µM | > 100 µM | > 100 µM
CCn1cc(S(N)(=O)=O)c2cc(NC(=O)c3cc(-c4ccccc4Cl)nc4ccccc34)ccc21 | – | 1.57 µM | > 100 µM | –
Cn1cc(S(N)(=O)=O)c2cc(NC(=O)c3ccnc(N)c3)ccc21 | > 100 µM | 34.6 µM | > 100 µM | > 100 µM
CCn1cc(S(N)(=O)=O)c2cc(NC(=O)c3cc(-c4ccccc4)nc4ccc(OC)cc34)ccc21 | > 100 µM | 40.2 µM | > 100 µM | > 100 µM
CCn1cc(S(N)(=O)=O)c2cc(NC(=O)c3cc(-c4ccc(OC)c(OC)c4)nc4ccccc34)ccc21 | > 100 µM | 35.8 µM | > 100 µM | > 100 µM
CCn1cc(S(N)(=O)=O)c2cc(NC(=O)c3ccnc(Cl)c3)ccc21 | – | 5.93 µM | > 100 µM | –
COc1ccc2nc(-c3ccccc3)cc(C(=O)Nc3ccc4c(c3)c(S(N)(=O)=O)cn4C)c2c1 | > 100 µM | 45 µM | > 100 µM | > 100 µM
CCn1cc(S(N)(=O)=O)c2cc(NC(=O)c3cc(-c4ccc5c(c4)OCO5)nc4ccccc34)ccc21 | – | 7.51 µM | > 100 µM | –
CCn1cc(S(N)(=O)=O)c2cc(NC(=O)c3cc(-c4ccc(OC)cc4OC)nc4ccc(OC)cc34)ccc21 | > 100 µM | 59.5 µM | > 100 µM | –
CCn1cc(S(N)(=O)=O)c2cc(NC(=O)c3ccncc3)ccc21 | > 100 µM | 21.6 µM | > 100 µM | > 100 µM
CCn1cc(S(N)(=O)=O)c2cc(NC(=O)c3cc(-c4cc(Cl)cc(Cl)c4)nc4ccc(OC)cc34)ccc21 | – | 4.23 µM | > 100 µM | –
COc1ccc(-c2cc(C(=O)Nc3ccc4c(c3)c(S(N)(=O)=O)cn4C)c3ccccc3n2)cc1OC | > 100 µM | 69.3 µM | > 100 µM | > 100 µM
CCn1cc(S(N)(=O)=O)c2cc(NC(=O)c3ccnc(Br)c3)ccc21 | – | 8.21 µM | > 100 µM | –
COc1ccc2nc(-c3ccccc3C)cc(C(=O)Nc3ccc4c(c3)c(S(N)(=O)=O)cn4C)c2c1 | > 100 µM | 16.3 µM | > 100 µM | –
